According to patent US20240368563A1, “IN VITRO METHOD OF INVASIVE AND DUCTAL CELL GROWTH” (Helmholtz Zentrum München - Deutsches Forschungszentrum Für …, priority 2021, published 2024):

Key:
Format in all cases: cell-based
[1] = system: human mammary luminal progenitor (LP) cells; assay: Branched structure formation of single LP cells in collagen type I gels (carmine staining, quantification of structure type, size, complexity)
Protocol: Healthy mammary gland tissue was provided by the Nymphenburg Clinic for Plastic and Aesthetic Surgery and processed in accordance with the regulations of the ethics committee of the Ludwig-Maximilian University, Munich, Germany (proposal 19-989) as described previously^35,63. In brief, reduction mammoplasty tissue was minced with scalpels into 2-3 mm^3 pieces. Next, tissue was digested with 300 U/mL collagenase I and 100 U/mL hyaluronidase and 1 μg/mL insulin for approximately 16 hrs. Finally, fragments were either cryopreserved immediately or a single cell suspension was made using trypsin-EDTA and dispase. If cells were cryopreserved as fragments, they were turned into a single cell suspension upon thawing using trypsin-EDTA and dispase. Prior to experiments, single cell suspensions were filtered through a 40 μm cell strainer. Age and parity of donors used in this study are catalogued in Table 1 given directly below.
3D collagen type I gels were prepared as described previously^35,63 with modifications. Single cell suspensions were mixed with BLOM foundation, rat tail collagen type I (Corning) and neutralizing solution. The final collagen concentration was 1.3 mg/ml. If the pH of the solution was <7.4, the pH was adjusted by addition of NaOH (1 M) up to a volume of 1 μl per 100 μl polymerization solution. After polymerization for 1 hr, 2× concentrated full medium was added onto the gels in a 1:1 volume ratio to the gel. Gels were encircled with a pipette tip for detachment. For cells that had not been in culture previously, the first medium exchange (from now on with 1× concentrated medium) was done after 5 d and then every 2-3 d. In case of cells that had been in 2D culture before, the first medium exchange was done between 3 d and 5 d. For all experiments except ELDA, per 1 ml of gel, between 250 and 2000 LP cells were seeded. In case of B+ and LM cells, between 2000 and 7500 cells were seeded per 1 ml of gel.
Images of carmine stained structures were evaluated with ImageJ. The size of an organoid was determined with the ImageJ area tool. Here, all tips of the structure were virtually connected with the ImageJ area tool and size was defined as the area covered by the organoid. For assessment of complexity, the longest branch was identified within each structure. The hierarchy of all other branches relative to this longest branch was classified (see FIG. 6B).
Carmine staining solution was prepared with a concentration of 0.5 g/l carmine and 1.15 g/l aluminium potassium sulfate in distilled water. For staining of 3D structures, gels were fixed with 4% paraformaldehyde for 15 min and incubated with carmine staining solution overnight. Images were acquired on a Leica DM IL LED microscope using a HiPlan 10×/0.22 PH1 objective. Three PBS washing steps were performed in between all steps described above.

[2] = system: human mammary luminal progenitor (LP) cells; assay: Immunofluorescence of polarization markers in LP-derived organoids; settings: BLOM-medium without Y-27632
Protocol: 2D cells for immunofluorescence were cultured in 96-wells with optically clear bottom (PerkinElmer, 6005550). Immunofluorescence was performed as described previously^35,63. In brief, 2D cells or 3D cells (in collagen type I gels) were fixed with 4% paraformaldehyde for 15 min. Cells were permeabilized with 0.2% Triton X-100 for 2 min (2D) and 10 min (3D) respectively. Blocking was performed with 10% donkey serum in 0.1% BSA for 1 hr (2D) and overnight at 4° C. (3D) respectively. Primary antibodies in 0.1% BSA were incubated for 1 hr (2D) and overnight at 4° C. (3D) respectively. Next, DAPI (167 ng/ml) was added for 2 min (2D) and 10 min (3D), respectively. Finally, Aqua-Poy/Mount mounting medium (Polysciences, 18606) was added to preserve staining. Three PBS washing steps were performed in between all steps described above. Images of cells grown in 2D were acquired on an Axio Imager. A M2m imaging microscope was used with a 40× objective. Images of cells grown in 3D were acquired on FLUOVIEW FV1000 inverted confocal laser scanning microscope equipped with four laser lines (405, 488, 543, and 633 nm) using UPLSAPO 60×, 40× and 20× objective lenses. Images were processed with Gimp 2.8.22 and ImageJ 1.52i.

[3] = system: human mammary luminal progenitor (LP) cells; assay: Live-cell imaging of LP-derived organoids during elongation phase (cell movement, bead displacement, duct elongation)
Protocol: Live cell imaging was performed using a Leica SP8 lightning confocal microscope with an on-stage incubation system (Ibidi) regulating CO2, O2, humidity and temperature. Organoids were imaged during elongation phase between day 7 and 9 with a time separation of 10 min between each acquired image. For visualization, nuclei were labelled with 10 μM sirDNA (Spirochrome AG) 3 hours prior to the measurements. Accordingly, organoids were excited at 633 nm and the fluorescent signal was collected around 674 nm using a HCX PL APO 10×/0.40 CS dry objective. Bead displacements/deformation fields were visualized using ImageJ 1.48v. First, the fluorescence signal of the fluorescent nuclei at the first time step was summed up along the z-axis to visualize the shape of the organoid. Second the fluorescence channel of the beads was summed along the z-axis and subsequently summed up over all time steps. At last, both calculated pictures were merged into one image. Bead tracking was calculated using Matlab R2020b. First, the fluorescence channel of the beads was masked by an intensity threshold to reduce the background. Second, bead positions are defined by taking the center of an interpolated intensity grid. Third, individual bead tracks were calculated by matching bead coordinates in three consecutive images. Thereby, beads touching the boundaries or beads to close to each other were excluded to guarantee a correct tracking.
Analysis for structure prevalence, type, size and complexity was performed with GraphPad Prism 8. Nuclei velocity within the organoid was calculated via optical flow using the in Matlab implemented Farneback algorithm. By defining the branch axis, the velocities were separated in a parallel and orthogonal component. The directionality of nuclei migration was defined by calculating the ratio of parallel and orthogonal component. Consequently, at directionality equal to one parallel and orthogonal component are at the same order of magnitude. At higher or lower values, either parallel or orthogonal velocity component dominates. In order to visualize the migration patterns of individual cells, cells were manually tracked. Therefore, each nucleus was tracked three times and the resulting average path was calculated.
Collagen degradation via MMPs was inhibited by using 10 μM Marimastat (Merck, 444289), which was added to the medium of elongating organoids prior to imaging. E-cadherin blocking was performed by addition of an E-cadherin blocking-antibody HECD1 in a dilution of 1:25 after 5 d of organoid culture.

[4] = 10 μM Marimastat during branch elongation phase

What does the source list for C[C@@H](N)[C@H]1CC[C@H](C(=O)Nc2ccncc2)CC1 [Y-27632]?
decrease in branched structure formation upon removal of Y-27632 ([1]; BLOM-medium without Y-27632 (DMSO ctrl) vs with Y-27632 (5 μM), donors M35, M44, M45): 79%; change in size of branched structures upon removal of Y-27632 ([1]; BLOM-medium without Y-27632 (DMSO ctrl) vs with Y-27632, size = area covered by organoid): −66%; organoids with tertiary or even more complex branches ([1]; control organoids in BLOM-medium with Y-27632 (only 6% without Y-27632)): 65%; formation of elongated branched structures (in words) ([1]; medium deprived of Y-27632): prevented the formation of elongated branched structures almost completely; apical-basal polarization of organoids (laminin, F-actin, lumen) (in words) [2]: polarization was disturbed in the absence of ROCK inhibition; bead displacement / contractility (in words) ([3]; in the presence of ROCK inhibitor, collagen gels spiked with fluorescent beads): not completely abolished, but limited to the front of elongating branches; directionality of cell migration within organoids (in words) ([3]; under ROCK inhibition (with Y-27632), nuclear labelling): primarily directed outwards in parallel to the axis of the extending branch

Which results are given for CNC(=O)[C@@H](NC(=O)[C@H](CC(C)C)[C@H](O)C(=O)NO)C(C)(C)C [Marimastat]?
duct elongation / invasion of branch tips (in words) [3, 4]: stopped the branch tips from further invading the matrix; general cytotoxic effect (in words) [3, 4]: excluding a general cytotoxic effect

Cc1ccc2c(c1)C(=O)[C@]1(O)CCN(c3ccc(N)cc3)C1=N2 [PAB, para-amino blebbistatin] was tested. Which “branched structure phenotype when Y-27632 is replaced by PAB (in words)” value ([1]; BLOM-medium without Y-27632, PAB added, donors M16, M28, M44) did it give?
Its value is “able to induce a phenotype similar to the one created by Y-27632”.
